# Experimental data published in publication PMC9388600, “Uncovering the roles of dihydropyrimidine dehydrogenase in fatty-acid induced steatosis using human cellular models” (Scientific Reports, 2022).
# Numbering of substitutions follows the chain as printed.
# How the values were obtained:
# [1] = target: T1, Dihydropyrimidine dehydrogenase (DPYD) (Homo sapiens, UniProt Q12882); assay: uracil accumulation in media of primary human hepatocytes treated with inhibitor, LC/MS/MS (endogenous DPYD); format: cell-based
# T1 sequence (Q12882 4-1025): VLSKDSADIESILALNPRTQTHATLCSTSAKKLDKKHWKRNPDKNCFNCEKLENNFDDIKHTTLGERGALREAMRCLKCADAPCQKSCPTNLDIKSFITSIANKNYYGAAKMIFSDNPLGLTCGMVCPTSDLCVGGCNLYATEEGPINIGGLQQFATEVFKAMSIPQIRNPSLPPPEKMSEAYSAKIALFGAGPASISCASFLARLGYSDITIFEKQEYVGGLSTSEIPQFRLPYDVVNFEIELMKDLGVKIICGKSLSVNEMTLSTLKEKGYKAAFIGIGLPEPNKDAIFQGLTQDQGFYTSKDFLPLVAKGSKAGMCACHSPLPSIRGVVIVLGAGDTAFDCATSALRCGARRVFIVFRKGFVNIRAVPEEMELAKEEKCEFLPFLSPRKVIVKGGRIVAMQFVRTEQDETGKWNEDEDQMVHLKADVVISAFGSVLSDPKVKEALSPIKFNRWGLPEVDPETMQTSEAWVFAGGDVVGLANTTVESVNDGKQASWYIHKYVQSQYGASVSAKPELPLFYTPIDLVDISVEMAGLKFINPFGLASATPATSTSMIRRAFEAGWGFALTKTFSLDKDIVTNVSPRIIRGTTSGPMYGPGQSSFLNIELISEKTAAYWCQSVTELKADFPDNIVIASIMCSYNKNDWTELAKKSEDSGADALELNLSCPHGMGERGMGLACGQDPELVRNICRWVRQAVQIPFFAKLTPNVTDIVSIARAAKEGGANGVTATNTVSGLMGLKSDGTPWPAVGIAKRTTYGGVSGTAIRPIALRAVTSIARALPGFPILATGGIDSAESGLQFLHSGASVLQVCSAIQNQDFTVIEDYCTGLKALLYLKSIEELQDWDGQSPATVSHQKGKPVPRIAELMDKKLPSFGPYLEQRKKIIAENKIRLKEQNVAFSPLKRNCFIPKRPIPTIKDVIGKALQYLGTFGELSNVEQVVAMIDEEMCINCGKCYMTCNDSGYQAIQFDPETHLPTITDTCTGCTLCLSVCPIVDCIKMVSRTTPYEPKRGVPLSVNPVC
# [2] = target: T2, Dihydropyrimidine dehydrogenase (DPYD) (Homo sapiens, UniProt Q12882, L310S); assay: steady-state kinetics of purified mutant enzyme, fluorometric NADPH depletion; substrate inhibition model (kcat); format: biochemical
# T2 construct: recombinant L310S mutant DPYD, expressed from pET28a(+) in E. coli
# T2 sequence (Q12882 4-1025 L310S): T1 sequence (Q12882 4-1025) with L307S
# [3] = target: T1, Dihydropyrimidine dehydrogenase (DPYD); assay: steady-state kinetics of purified enzyme, fluorometric NADPH depletion; substrate inhibition model (kcat); format: biochemical; set-up: recombinant wild type DPYD, expressed from pET28a(+) in E. coli
# Protocol: steady-state kinetics of purified enzyme, fluorometric NADPH depletion; substrate inhibition model (kcat) on Dihydropyrimidine dehydrogenase (DPYD) | The kinetic measurements of DPYD were carried out by varying concentrations of uracil.
IC50 [1],"steady-state kinetics of purified mutant enzyme, fluorometric NADPH depletion; s [2]","steady-state kinetics of purified enzyme, fluorometric NADPH depletion; substrat [3]",SMILES
56 nM,–,–,Oc1cc(O)c(Cl)cn1 [Gimeracil]
–,99 ± 5 min⁻¹,65 ± 4 min⁻¹,O=c1cc[nH]c(=O)[nH]1 [uracil]
